Experimental data taken from US20120100067A1, “Solubilisation Method” (MEDIGENE AG, priority 2008, published 2012).

Tests used:
[1] = Solubilisation of dry Paclitaxel by empty liposomes, filtration, HPLC quantification
Experimental: The Agilent 1100 Series HPLC System (Agilent Technologies, Palo Alto, Calif., USA) consisted of a quaternary pump, an autosampler, a column thermostat and an on-line degasser. A LiChrospher 60 RP (5 μm, 4×250 mm) analytical column (Merck, Darmstadt, Germany) was used. The flow rate of the mobile phase, consisting of 32% (v/v) acetonitrile, 12% tetrahydrofuran and 56% ammoniumacetat (2 mM in water, pH value set to 4.8 with acetic acid) was set at 1 ml/min.

[2] = cited from earlier work
[3] = Solubilisation of Camptothecin by DOTAP/DOPC liposomes, UV/Vis at 369 nm; format: physicochemical; conditions: for concentration of solubilized Camptothecin: 10% trehalose
Experimental: Treated and untreated liposomal formulations were exposed to Camptothecin as described for Paclitaxel in Example 2.1. The concentration of solubilized Camptothecin was determined by UV/Vis-spectroscopy (Beckmann DU 640, Beckmann Coulter, Germany) at 369 nm after dilution in methanol.

| Compound | expected amount of solubilised Paclitaxel ([1]; 100 mM liposome preparation, freeze/thaw treated, extrapolated from solubilisation factor) [mM] | loading capacity of single-lipid liposomes after freezing/thawing ([1]; 100% DOTAP and 100% DOPC liposomes, 10 mM) | solubility of Paclitaxel in liposomal preparations versus liquid formulation without pre-treatment ([1]; DOTAP/DOPC 50/50 10 mM, spray dried, spray freeze-dried, freeze-dried, frozen) | amount of solubilised Paclitaxel, freeze/thawed versus untreated (factor) ([1]; DOTAP/DOPC 50/50, at a given lipid concentration) | concentration of solubilised Paclitaxel (maximum obtained) ([1]; DOTAP/DOPC 50/50 liposomes, 10-35 mM lipid, 10% trehalose, after freezing/thawing, 3 h) | loading capacity, treated versus untreated lipid dispersions (factor) ([1]; DOTAP/DOPC mixtures 25/75, 50/50, 75/25, 10 mM lipid, freeze/thaw) | loading capacity of binary lipid mixtures after freeze/thawing ([1]; DOTAP/DOPC, DOTAP/DSPC, DSTAP/DSPC 50/50) | improvement of loading capacity, untreated versus treated liposomes (factor) ([1]; DOTAP/DSPC 50/50 liposomes, freeze/thaw) | loading at 15 min incubation compared with 3 hour incubation ([1]; freeze-dried, rehydrated DOTAP/DOPC 50/50 liposomes) | solubilised concentration of Paclitaxel ([1]; per 1 mM of untreated DOTAP/DOPC) [µM] | solubility of paclitaxel in a corresponding aqueous buffer ([2]; aqueous buffer without liposomes) | solubility of paclitaxel in water ([2]; water) | enhancement of concentration of solubilized agent, pre-treated versus untreated (factor) ([3]; DOTAP/DOPC 50/50 10 mM) | concentration of solubilized Camptothecin ([3]; pre-treated DOTAP/DOPC 50/50 10 mM) [µM] | concentration of solubilized Camptothecin ([3]; untreated DOTAP/DOPC 50/50 10 mM) [µM] |
| --- | --- | --- | --- | --- | --- | --- | --- | --- | --- | --- | --- | --- | --- | --- | --- |
| CC(=O)O[C@H]1C(=O)[C@@]2(C)[C@H]([C@H](OC(=O)c3ccccc3)[C@]3(O)C[C@H](OC(=O)[C@H](O)[C@@H](NC(=O)c4ccccc4)c4ccccc4)C(C)=C1C3(C)C)[C@]1(OC(C)=O)CO[C@@H]1C[C@@H]2O [Paclitaxel] | 4 | improved | elevated | about a factor of four higher | up to 1600 μM | about a factor of four higher | substantially improved | 5 | not lower | 10 | below 1 μM | below 1 μg/ml | – | – | – |
| CC[C@@]1(O)C(=O)OCc2c1cc1n(c2=O)Cc2cc3ccccc3nc2-1 [Camptothecin] | – | – | – | – | – | – | – | – | – | – | – | – | factor of about three | 52 | 18 |
